Laboratory results: ChEMBL document CHEMBL4229400, “Covalent inhibitors of nicotinamide N-methyltransferase (NNMT) provide evidence for target engagement challenges in situ” (Bioorg Med Chem Lett, 2018)
Changes are numbered by the printed parent chain. pIC50: −log10 of the molar value. The source made the active and inactive calls. The calls are words filed in the database; no cut-off is given here.

Columns and labels:
[1] = molecular target: T1, Nicotinamide N-methyltransferase (Homo sapiens) (UniProt P40261); assay: Inhibition of SAH-rhodamine binding to NNMT in human 786-O cell soluble proteomic lysate at 2 uM preincubated for 1 hr followed by SAH-rhodamine addition measured after 5 mins by Gel-based ABPP analysis
T1 sequence (whole entry): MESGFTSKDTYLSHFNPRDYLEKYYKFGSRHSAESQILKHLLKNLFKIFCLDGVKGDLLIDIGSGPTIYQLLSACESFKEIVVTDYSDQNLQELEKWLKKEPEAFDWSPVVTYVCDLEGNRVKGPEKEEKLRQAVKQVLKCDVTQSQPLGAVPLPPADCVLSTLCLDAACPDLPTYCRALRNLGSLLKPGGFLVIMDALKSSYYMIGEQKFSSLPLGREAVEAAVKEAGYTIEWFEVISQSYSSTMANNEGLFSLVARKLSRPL

[2] = molecular target: T1, Nicotinamide N-methyltransferase (Homo sapiens); assay: (§1) Inhibition of SAH-rhodamine binding to NNMT in human 786-O cell soluble proteomic lysate preincubated for 1 hr followed by SAH-rhodamine addition measured after 5 mins by Gel-based ABPP analysis
[3] = molecular target: T2, Nicotinamide N-methyltransferase (Homo sapiens, UniProt P40261); assay: as §1
T2 sequence (P40261 whole entry): T1 sequence (whole entry)

[4] = molecular target: T1, Nicotinamide N-methyltransferase (Homo sapiens); assay: (§2) Inhibition of NNMT in human 786-O cell lysate using d4-nicotinamide as substrate preincubated for 1 hr followed by substrate and SAM addition measured after 15 to 30 mins by LC-MS analysis
[5] = molecular target: T2, Nicotinamide N-methyltransferase; assay: as §2
[6] = system: T3, Nicotinamide N-methyltransferase (Homo sapiens), P40261 [C165A]; assay: Inhibition of NNMT C165A mutant in human 786-O cell lysate using d4-nicotinamide as substrate preincubated for 1 hr followed by substrate and SAM addition measured after 15 to 30 mins by LC-MS analysis
T3 sequence (whole entry): T1 sequence (whole entry) with C165A

[7] = molecular target: T1, Nicotinamide N-methyltransferase (Homo sapiens); assay: Inhibition of SAH-rhodamine binding to NNMT in human 786-O cell soluble proteomic lysate assessed as ratio of observed rate constant to test compound concentration preincubated for 10 to 40 mins followed by SAH-rhodamine addition measured after 5 mins by Gel-based ABPP analysis
[8] = molecular target: T1, Nicotinamide N-methyltransferase (Homo sapiens); assay: Binding affinity to NNMT C165 residue in human 786-O cell lysate at 5 uM incubated for 4 hrs followed by cell lysis by IA-alkyne probe based isoTOP-ABPP analysis
[9] = molecular target: T1, Nicotinamide N-methyltransferase (Homo sapiens); assay: Binding affinity to NNMT C165 residue in human 786-O cell soluble proteomic lysate at 1 to 5 uM incubated for 1 hr followed by cell lysis by IA-alkyne probe based isoTOP-ABPP analysis
[10] = molecular target: T1, Nicotinamide N-methyltransferase (Homo sapiens); assay: Binding affinity to NNMT C165 residue in human 786-O cell soluble proteomic lysate at 5 uM incubated for 1 hr followed by cell lysis by IA-alkyne probe based isoTOP-ABPP analysis relative to control
[11] = molecular target: T4, Heme oxygenase 2 (Homo sapiens) (UniProt P30519); assay: Binding affinity to HMOX2 cysteine residue in human 786-O cell soluble proteomic lysate at 5 uM incubated for 1 hr followed by cell lysis by IA-alkyne probe based isoTOP-ABPP analysis
T4 sequence (whole entry): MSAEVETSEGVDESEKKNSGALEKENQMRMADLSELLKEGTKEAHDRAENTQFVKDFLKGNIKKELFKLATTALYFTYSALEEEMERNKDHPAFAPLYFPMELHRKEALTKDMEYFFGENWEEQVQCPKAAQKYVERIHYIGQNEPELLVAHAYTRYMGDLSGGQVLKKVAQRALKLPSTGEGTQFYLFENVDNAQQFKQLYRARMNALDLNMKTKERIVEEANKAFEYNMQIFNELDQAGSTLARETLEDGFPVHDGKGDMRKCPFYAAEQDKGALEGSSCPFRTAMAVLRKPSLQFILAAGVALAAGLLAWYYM

[12] = molecular target: T1, Nicotinamide N-methyltransferase (Homo sapiens); assay: Binding affinity to NNMT C115 residue in human 786-O cell soluble proteomic lysate at 5 uM incubated for 1 hr followed by cell lysis by IA-alkyne probe based isoTOP-ABPP analysis relative to control
[13] = molecular target: T1, Nicotinamide N-methyltransferase (Homo sapiens); assay: Binding affinity to NNMT C75 residue in human 786-O cell soluble proteomic lysate at 5 uM incubated for 1 hr followed by cell lysis by IA-alkyne probe based isoTOP-ABPP analysis relative to control
[14] = molecular target: T1, Nicotinamide N-methyltransferase (Homo sapiens); assay: Binding affinity to NNMT C50 residue in human 786-O cell soluble proteomic lysate at 5 uM incubated for 1 hr followed by cell lysis by IA-alkyne probe based isoTOP-ABPP analysis relative to control
[15] = molecular target: T5, Glutathione S-transferase omega-1 (Homo sapiens) (UniProt P78417); assay: Binding affinity to GSTO1 cysteine residue in human 786-O cell soluble proteomic lysate at 5 uM incubated for 1 hr followed by cell lysis by IA-alkyne probe based isoTOP-ABPP analysis
T5 sequence (whole entry): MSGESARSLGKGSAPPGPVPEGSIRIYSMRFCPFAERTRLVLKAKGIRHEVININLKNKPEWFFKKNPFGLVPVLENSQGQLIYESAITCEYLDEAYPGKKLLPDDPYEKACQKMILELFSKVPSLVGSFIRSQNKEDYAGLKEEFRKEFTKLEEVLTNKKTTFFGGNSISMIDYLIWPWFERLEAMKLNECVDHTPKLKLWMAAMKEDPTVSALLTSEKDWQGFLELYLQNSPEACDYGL

[16] = molecular target: T6, Cytoskeleton-associated protein 4 (Homo sapiens) (UniProt Q07065); assay: Binding affinity to CKAP4 cysteine residue in human 786-O cell soluble proteomic lysate at 5 uM incubated for 1 hr followed by cell lysis by IA-alkyne probe based isoTOP-ABPP analysis
T6 sequence (whole entry): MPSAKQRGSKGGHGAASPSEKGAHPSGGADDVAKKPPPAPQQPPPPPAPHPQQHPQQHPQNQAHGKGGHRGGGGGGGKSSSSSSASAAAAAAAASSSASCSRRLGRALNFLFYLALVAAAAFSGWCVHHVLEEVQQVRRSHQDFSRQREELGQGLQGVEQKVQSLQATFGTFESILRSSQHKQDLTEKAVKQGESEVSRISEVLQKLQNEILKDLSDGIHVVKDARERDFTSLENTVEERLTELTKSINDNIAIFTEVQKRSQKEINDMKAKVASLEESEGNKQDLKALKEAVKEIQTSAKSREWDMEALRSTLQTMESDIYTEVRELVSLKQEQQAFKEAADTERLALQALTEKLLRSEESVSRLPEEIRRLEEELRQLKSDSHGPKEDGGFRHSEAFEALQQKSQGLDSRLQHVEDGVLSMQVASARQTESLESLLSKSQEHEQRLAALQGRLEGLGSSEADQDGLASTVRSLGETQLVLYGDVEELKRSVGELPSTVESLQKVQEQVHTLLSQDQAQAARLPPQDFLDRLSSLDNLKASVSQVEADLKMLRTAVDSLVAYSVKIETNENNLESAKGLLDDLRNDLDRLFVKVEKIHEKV

With `CC(C)CCN(C(=O)CCl)c1cc(C(=O)Nc2cccnc2Cl)cc(C(F)(F)F)c1` as the molecule, how does the inhibition [1] read?
Its inhibition is “Active”.

And the inhibition [2]?
The inhibition was “Dose-dependent effect”.

And the pIC50 [3]?
Its pIC50 is 6.39.

What about the inhibition [4] of the same molecule?
The inhibition was “Dose-dependent effect”.

And the pIC50 [5]?
Its pIC50 is 6.70.

What about the inhibition [6] of the same molecule?
The inhibition was “inactive”.

And the Ratio [7]?
Its Ratio is 200 M⁻¹ s⁻¹.

What about the Activity [8] of the same molecule?
The Activity was “inactive”.

What about the Activity [9] of the same molecule?
Its Activity is “Active”.

And the fold change (FC) [10]?
The fold change (FC) was 20.

And the Activity [11]?
Its Activity is “Active”.

What about the fold change (FC) [12] of the same molecule?
The fold change (FC) was 1.

What about the fold change (FC) [13] of the same molecule?
The fold change (FC) was 1.3.

What about the fold change (FC) [14] of the same molecule?
The fold change (FC) was 1.3.

What about the Activity [15] of the same molecule?
Its Activity is “Active”.

What about the Activity [16] of the same molecule?
The Activity was “Active”.
